The NIST ThermoML archive (doi:10.1016/j.jct.2019.03.025)

Test: xn = mol fraction of the nth substance listed
Settings: Liquid, Vibrating tube method

Cc1cccc(C)c1 [1,3-dimethylbenzene] + CCCCCCCCCC
mass density [kg/m3]
Settings	293.15 K	303.15 K	313.15 K	323.15 K	333.15 K	343.15 K	353.15 K	363.15 K
100 kPa, x2 = 0	864.2	855	846.7	837.7	829	820	811.3	802.2
100 kPa, x2 = 0.2005	825.1	816	808.1	799.4	791.1	782.3	773.9	765.1
100 kPa, x2 = 0.3999	793.6	784.6	777	768.6	760.5	752	743.8	735.2
100 kPa, x2 = 0.603	768.3	759.3	752	743.9	735.9	727.6	719.6	711.3
100 kPa, x2 = 0.7998	748.3	739.4	732.3	724.4	716.6	708.4	700.5	692.3
1000 kPa, x2 = 0	864.4	855.4	846.9	838.6	829.8	821.1	812.2	803.3
1000 kPa, x2 = 0.2005	825.4	816.7	808.4	800.3	791.9	783.5	774.8	766.2
1000 kPa, x2 = 0.3999	794.1	785.6	777.4	769.5	761.3	753.1	744.7	736.4
1000 kPa, x2 = 0.603	768.8	760.5	752.5	744.7	736.7	728.7	720.5	712.5
1000 kPa, x2 = 0.7998	748.9	740.8	732.8	725.2	717.4	709.4	701.4	693.5
3000 kPa, x2 = 0	865.8	857.5	848.6	840.2	831.7	823	814.3	805.5
3000 kPa, x2 = 0.2005	826.8	818.7	810.1	802	793.8	785.4	777.1	768.6
3000 kPa, x2 = 0.3999	795.4	787.4	779.1	771.3	763.3	755.1	747	738.8
3000 kPa, x2 = 0.603	770.2	762.3	754.1	746.5	738.7	730.7	722.8	714.9
3000 kPa, x2 = 0.7998	750.2	742.4	734.4	727	719.4	711.5	703.7	695.9
5000 kPa, x2 = 0	866.9	858.8	850.1	841.9	833.4	825	816.2	807.6
5000 kPa, x2 = 0.2005	828	820.1	811.7	803.8	795.6	787.5	779.1	770.8
5000 kPa, x2 = 0.3999	796.6	789	780.8	773.1	765.1	757.2	749	741
5000 kPa, x2 = 0.603	771.4	763.9	755.8	748.3	740.5	732.8	724.8	717.1
5000 kPa, x2 = 0.7998	751.5	744	736.1	728.8	721.2	713.6	705.8	698.2
10000 kPa, x2 = 0	870.5	862.3	854	845.9	837.6	829.4	821	812.4
10000 kPa, x2 = 0.2005	831.7	823.8	815.7	808	799.9	792	784	775.7
10000 kPa, x2 = 0.3999	800.4	792.5	784.7	777.3	769.5	761.8	753.9	745.9
10000 kPa, x2 = 0.603	775.2	767.5	759.8	752.6	744.9	737.5	729.8	722
10000 kPa, x2 = 0.7998	755.2	747.7	740.2	733.1	725.7	718.3	710.8	703
15000 kPa, x2 = 0	873.8	865.8	857.6	849.8	841.6	833.6	825.7	817.6
15000 kPa, x2 = 0.2005	835.1	827.3	819.4	811.9	804.1	796.4	788.7	781
15000 kPa, x2 = 0.3999	803.7	796.2	788.5	781.2	773.7	766.1	758.7	751.2
15000 kPa, x2 = 0.603	778.6	771.2	763.6	756.6	749.2	741.8	734.6	727.4
15000 kPa, x2 = 0.7998	758.6	751.4	743.9	737.1	729.9	722.6	715.6	708.5
20000 kPa, x2 = 0	877	869	861.1	853.6	845.6	837.9	829.8	821.8
20000 kPa, x2 = 0.2005	838.3	830.6	822.9	815.8	808.1	800.7	793	785.3
20000 kPa, x2 = 0.3999	807	799.5	792.1	785.1	777.7	770.5	763	755.6
20000 kPa, x2 = 0.603	781.8	774.4	767.2	760.4	753.2	746.2	739	731.7
20000 kPa, x2 = 0.7998	761.8	754.7	747.6	741	733.9	727	720	712.8
25000 kPa, x2 = 0	880.2	872.2	864.5	857	849.3	841.7	834	826
25000 kPa, x2 = 0.2005	841.5	833.8	826.4	819.2	811.9	804.6	797.2	789.5
25000 kPa, x2 = 0.3999	810.2	802.7	795.6	788.6	781.4	774.3	767.2	759.8
25000 kPa, x2 = 0.603	785	777.8	770.7	763.8	756.9	750	743.1	735.9
25000 kPa, x2 = 0.7998	765.1	758	751.1	744.4	737.7	730.9	724.1	717
30000 kPa, x2 = 0	883.2	875.3	867.7	860.4	852.8	845.5	838	830.2
30000 kPa, x2 = 0.2005	844.5	837	829.7	822.7	815.4	808.4	801.2	793.8
30000 kPa, x2 = 0.3999	813.3	805.9	798.8	792.1	785	778.2	771.2	764.1
30000 kPa, x2 = 0.603	788.1	780.9	773.9	767.4	760.5	753.9	747.1	740.2
30000 kPa, x2 = 0.7998	768.2	761.2	754.3	747.9	741.3	734.7	728.1	721.4
35000 kPa, x2 = 0	886	878.2	870.9	863.7	856.2	849.2	841.7	834.2
35000 kPa, x2 = 0.2005	847.3	840.1	833	826	818.9	812.1	805	797.8
35000 kPa, x2 = 0.3999	816.1	809	802.1	795.3	788.4	781.9	775	768.1
35000 kPa, x2 = 0.603	790.9	784.1	777.2	770.6	763.9	757.6	750.9	744.3
35000 kPa, x2 = 0.7998	771	764.3	757.6	751.2	744.7	738.4	731.9	725.4
40000 kPa, x2 = 0	888.7	881	873.8	866.9	859.7	852.5	845.3	838.1
40000 kPa, x2 = 0.2005	850.1	842.9	835.9	829.2	822.4	815.5	808.6	801.7
40000 kPa, x2 = 0.3999	818.8	811.8	805	798.6	792	785.3	778.6	772
40000 kPa, x2 = 0.603	793.7	786.9	780.1	773.9	767.4	761	754.5	748.2
40000 kPa, x2 = 0.7998	773.8	767.1	760.5	754.4	748.2	741.8	735.4	729.3
50000 kPa, x2 = 0	894.4	886.7	879.8	873	866	859.1	852.1	845.2
50000 kPa, x2 = 0.2005	855.8	848.6	841.9	835.3	828.7	822.1	815.4	808.8
50000 kPa, x2 = 0.3999	824.5	817.5	810.9	804.7	798.2	791.9	785.4	779.1
50000 kPa, x2 = 0.603	799.4	792.6	786.1	779.9	773.7	767.6	761.3	755.2
50000 kPa, x2 = 0.7998	779.4	772.8	766.4	760.4	754.4	748.5	742.2	736.3
60000 kPa, x2 = 0	899.1	892	885.1	878.8	871.9	865	858.5	852
60000 kPa, x2 = 0.2005	860.6	853.9	847.2	841.2	834.6	828.1	821.8	815.6
60000 kPa, x2 = 0.3999	829.2	822.7	816.2	810.5	804.2	797.8	791.8	785.8
60000 kPa, x2 = 0.603	804	797.8	791.3	785.8	779.6	773.4	767.6	761.8
60000 kPa, x2 = 0.7998	784.1	778	771.6	766.3	760.4	754.2	748.5	742.9
